From ChEMBL document CHEMBL1955751, “Structure-activity relationship of the 7-hydroxy benzimidazole analogs as glycogen synthase kinase 3β inhibitor” (Bioorg Med Chem Lett, 2012)

Key:
[1] = target: T1, Glycogen synthase kinase-3 beta (Homo sapiens, UniProt P49841); test: Inhibition of GSK3-beta in human RD cells; type: cell-based
Target sequence in this assay (P49841 whole entry): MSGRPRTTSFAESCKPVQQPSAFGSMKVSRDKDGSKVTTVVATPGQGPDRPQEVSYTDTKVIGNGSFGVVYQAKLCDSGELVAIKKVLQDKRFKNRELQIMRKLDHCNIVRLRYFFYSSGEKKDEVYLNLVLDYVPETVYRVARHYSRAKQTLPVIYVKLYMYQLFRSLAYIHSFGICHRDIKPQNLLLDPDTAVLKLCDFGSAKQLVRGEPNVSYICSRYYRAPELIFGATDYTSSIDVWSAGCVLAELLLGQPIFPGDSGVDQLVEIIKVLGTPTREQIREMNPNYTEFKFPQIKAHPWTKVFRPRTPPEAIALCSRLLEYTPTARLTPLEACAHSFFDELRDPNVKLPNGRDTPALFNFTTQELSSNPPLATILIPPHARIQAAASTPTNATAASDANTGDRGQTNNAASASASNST

[2] = target: T1, Glycogen synthase kinase-3 beta; test: Inhibition of GSK3-beta assessed as residual activity at 5 uM
Target sequence in this assay (P49841 whole entry, looked up): as the sequence (P49841 whole entry) above

[3] = target: T1, Glycogen synthase kinase-3 beta; test: Inhibition of GSK3-beta in human RD cells assessed as glycogen synthase activation measured after 24 hrs under serum starving condition; type: cell-based
Target sequence in this assay (P49841 whole entry): as above

[4] = Cytotoxicity against human RD cells by MTS assay; type: cell-based; details: read-out: CCIC50
[5] = target: T1, Glycogen synthase kinase-3 beta; test: Inhibition of GSK3-beta
Target sequence in this assay (P49841 whole entry): as above

[6] = target: Mitogen-activated protein kinase 3 (Homo sapiens) (UniProt P27361); test: Inhibition of ERK1 assessed as residual activity at 5 uM
Chain of Mitogen-activated protein kinase 3 (Homo sapiens) (P27361 whole entry): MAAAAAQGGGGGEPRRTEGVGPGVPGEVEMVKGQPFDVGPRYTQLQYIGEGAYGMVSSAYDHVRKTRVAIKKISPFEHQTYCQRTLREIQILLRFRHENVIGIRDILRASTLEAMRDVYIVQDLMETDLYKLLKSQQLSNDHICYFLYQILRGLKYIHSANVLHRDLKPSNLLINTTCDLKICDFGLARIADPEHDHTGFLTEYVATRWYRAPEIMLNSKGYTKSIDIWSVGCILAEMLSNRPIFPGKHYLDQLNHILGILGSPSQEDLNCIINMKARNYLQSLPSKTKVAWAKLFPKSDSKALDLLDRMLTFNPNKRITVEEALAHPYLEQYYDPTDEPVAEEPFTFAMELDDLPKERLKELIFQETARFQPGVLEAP

[7] = target: Cyclin-dependent kinase 1 (Homo sapiens) (UniProt P06493); test: Inhibition of CDK1 assessed as residual activity at 5 uM
Chain of Cyclin-dependent kinase 1 (Homo sapiens) (P06493 whole entry, looked up): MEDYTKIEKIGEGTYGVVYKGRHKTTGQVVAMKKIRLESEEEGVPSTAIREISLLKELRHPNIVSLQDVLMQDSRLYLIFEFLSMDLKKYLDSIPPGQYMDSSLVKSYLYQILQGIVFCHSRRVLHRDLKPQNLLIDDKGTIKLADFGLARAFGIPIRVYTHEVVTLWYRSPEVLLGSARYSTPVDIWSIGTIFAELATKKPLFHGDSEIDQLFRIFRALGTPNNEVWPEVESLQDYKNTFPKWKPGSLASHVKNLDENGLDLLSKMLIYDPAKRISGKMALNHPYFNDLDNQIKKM

[8] = Ratio of CCIC50 for human RD cells to EC50 for GSK3-beta in human RD cells
[9] = target: T2, Inhibitor of nuclear factor kappa-B kinase subunit beta (Homo sapiens) (UniProt O14920); test: Inhibition of IKK-beta assessed as residual activity at 5 uM
T2 sequence (whole entry): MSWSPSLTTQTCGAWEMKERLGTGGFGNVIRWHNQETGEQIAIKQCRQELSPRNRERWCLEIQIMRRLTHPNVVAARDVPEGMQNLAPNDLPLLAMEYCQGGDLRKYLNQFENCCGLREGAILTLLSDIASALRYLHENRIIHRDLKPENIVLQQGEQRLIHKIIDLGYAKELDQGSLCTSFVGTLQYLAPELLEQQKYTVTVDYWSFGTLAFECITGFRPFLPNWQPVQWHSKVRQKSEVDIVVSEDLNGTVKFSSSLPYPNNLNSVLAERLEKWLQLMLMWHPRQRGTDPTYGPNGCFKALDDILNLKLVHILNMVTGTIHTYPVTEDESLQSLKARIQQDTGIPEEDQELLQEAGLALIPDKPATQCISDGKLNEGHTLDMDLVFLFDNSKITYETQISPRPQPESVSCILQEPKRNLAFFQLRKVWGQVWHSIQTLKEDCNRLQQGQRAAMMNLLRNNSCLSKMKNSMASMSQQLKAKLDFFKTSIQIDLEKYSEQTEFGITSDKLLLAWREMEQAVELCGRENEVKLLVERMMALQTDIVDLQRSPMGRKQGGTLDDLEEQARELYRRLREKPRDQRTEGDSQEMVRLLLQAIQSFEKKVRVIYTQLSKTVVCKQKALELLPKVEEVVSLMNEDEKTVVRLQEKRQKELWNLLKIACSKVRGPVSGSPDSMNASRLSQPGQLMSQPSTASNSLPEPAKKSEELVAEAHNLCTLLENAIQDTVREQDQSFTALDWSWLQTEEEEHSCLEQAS

[10] = target: Mitogen-activated protein kinase 1 (Homo sapiens) (UniProt P28482); test: Inhibition of ERK2 assessed as residual activity at 5 uM
Chain of Mitogen-activated protein kinase 1 (Homo sapiens) (P28482 whole entry): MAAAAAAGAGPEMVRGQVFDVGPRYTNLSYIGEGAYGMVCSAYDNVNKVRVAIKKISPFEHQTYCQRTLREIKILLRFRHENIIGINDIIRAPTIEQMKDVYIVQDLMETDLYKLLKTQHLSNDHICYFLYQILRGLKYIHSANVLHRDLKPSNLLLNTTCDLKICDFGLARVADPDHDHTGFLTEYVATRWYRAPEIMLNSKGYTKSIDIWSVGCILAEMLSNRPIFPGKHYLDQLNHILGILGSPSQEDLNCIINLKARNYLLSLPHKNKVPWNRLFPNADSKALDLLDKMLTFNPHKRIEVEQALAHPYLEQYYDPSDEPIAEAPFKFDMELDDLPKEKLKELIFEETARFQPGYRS

[11] = Inhibition of AKT assessed as residual activity at 5 uM
[12] = target: Cyclin-dependent kinase 4 (Homo sapiens) (UniProt P11802); test: Inhibition of CDK4 assessed as residual activity at 5 uM
Chain of Cyclin-dependent kinase 4 (Homo sapiens) (P11802 whole entry): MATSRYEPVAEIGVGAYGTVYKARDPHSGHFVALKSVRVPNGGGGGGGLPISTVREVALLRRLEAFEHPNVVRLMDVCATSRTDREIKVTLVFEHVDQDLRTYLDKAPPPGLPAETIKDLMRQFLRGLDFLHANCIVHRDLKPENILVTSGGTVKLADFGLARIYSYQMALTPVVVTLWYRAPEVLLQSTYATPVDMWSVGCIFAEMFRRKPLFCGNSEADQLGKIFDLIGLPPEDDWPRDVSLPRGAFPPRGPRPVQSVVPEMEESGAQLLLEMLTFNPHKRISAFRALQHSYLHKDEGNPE

[13] = target: Vascular endothelial growth factor receptor 2 (Homo sapiens) (UniProt P35968); test: Inhibition of KDR assessed as residual activity at 5 uM
Chain of Vascular endothelial growth factor receptor 2 (Homo sapiens) (P35968 whole entry): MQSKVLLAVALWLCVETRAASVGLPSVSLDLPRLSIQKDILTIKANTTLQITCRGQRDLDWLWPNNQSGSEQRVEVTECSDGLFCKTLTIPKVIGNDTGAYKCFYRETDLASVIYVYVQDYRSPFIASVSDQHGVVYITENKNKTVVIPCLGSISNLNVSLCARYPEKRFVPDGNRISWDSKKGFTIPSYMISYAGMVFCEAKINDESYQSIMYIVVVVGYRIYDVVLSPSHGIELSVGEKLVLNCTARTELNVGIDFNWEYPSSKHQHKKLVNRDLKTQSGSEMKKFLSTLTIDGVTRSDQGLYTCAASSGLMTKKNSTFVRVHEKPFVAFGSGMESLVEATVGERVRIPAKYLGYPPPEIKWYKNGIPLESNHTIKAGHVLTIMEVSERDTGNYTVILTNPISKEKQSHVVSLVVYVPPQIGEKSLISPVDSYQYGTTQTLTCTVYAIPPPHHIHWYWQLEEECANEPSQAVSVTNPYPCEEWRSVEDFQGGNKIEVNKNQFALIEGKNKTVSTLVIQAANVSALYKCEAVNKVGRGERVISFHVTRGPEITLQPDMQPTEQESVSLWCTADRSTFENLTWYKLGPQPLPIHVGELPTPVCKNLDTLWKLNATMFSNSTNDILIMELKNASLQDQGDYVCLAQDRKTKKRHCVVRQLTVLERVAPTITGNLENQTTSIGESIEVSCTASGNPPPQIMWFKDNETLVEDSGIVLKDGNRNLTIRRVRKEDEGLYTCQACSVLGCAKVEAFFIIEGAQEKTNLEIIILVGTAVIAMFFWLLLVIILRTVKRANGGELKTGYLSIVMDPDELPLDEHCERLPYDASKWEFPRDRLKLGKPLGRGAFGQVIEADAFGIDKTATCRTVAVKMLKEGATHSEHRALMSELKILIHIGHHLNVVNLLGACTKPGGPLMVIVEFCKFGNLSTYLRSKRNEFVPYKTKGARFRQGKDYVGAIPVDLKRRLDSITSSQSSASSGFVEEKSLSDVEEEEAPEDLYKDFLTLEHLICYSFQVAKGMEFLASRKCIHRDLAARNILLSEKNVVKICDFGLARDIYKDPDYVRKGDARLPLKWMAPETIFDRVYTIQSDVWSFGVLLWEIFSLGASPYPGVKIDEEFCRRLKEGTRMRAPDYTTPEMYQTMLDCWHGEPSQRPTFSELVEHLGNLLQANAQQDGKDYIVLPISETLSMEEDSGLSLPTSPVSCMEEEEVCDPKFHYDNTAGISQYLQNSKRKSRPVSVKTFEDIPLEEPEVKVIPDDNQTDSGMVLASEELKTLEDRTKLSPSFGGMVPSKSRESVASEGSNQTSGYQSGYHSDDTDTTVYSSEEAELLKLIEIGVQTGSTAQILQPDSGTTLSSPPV

Row | EC50 [1] [nM] | Activity [2] [%] | IC50 [5] [nM] | SMILES | CC50 [4] [nM] | Ratio [8] | other results
1 | 400 | – | – | CS(=O)(=O)Nc1ccc(CCNC(=O)c2ccc(O)c3[nH]c(-c4ccc(F)cc4)nc23)cc1 | – | – | –
2 | 25000 | – | 110 | CS(=O)(=O)Nc1ccc(CCNC(=O)c2ccc(O)c3nc(-c4ccncc4)[nH]c23)cc1 | – | – | –
3 | 230 | – | 20 | CS(=O)(=O)Nc1ccc(CCNC(=O)c2ccc(O)c3[nH]c(-c4ccc(F)cc4Cl)nc23)cc1 | – | – | –
4 | – | 36 | 2800 | Cc1ccc(S(=O)(=O)Nc2ccc(CCNC(=O)c3ccc(O)c4[nH]c(Cc5ccccc5)nc34)cc2)cc1 | – | – | –
5 | 3900 | 18 | 1600 | CS(=O)(=O)Nc1ccc(CCNC(=O)c2ccc(O)c3[nH]c(Cc4ccccc4)nc23)cc1 | – | – | –
6 | 95 | – | – | Cc1ccc(S(=O)(=O)Nc2ccc(CCNC(=O)c3ccc(O)c4[nH]c(-c5ccc(F)cc5)nc34)cc2)cc1 | 17500 | 184 | –
7 | 2700 | – | 44 | CS(=O)(=O)Nc1ccc(CCNC(=O)c2ccc(O)c3[nH]c(C4CCCC4)nc23)cc1 | – | – | –
8 | 580 | – | – | CS(=O)(=O)Nc1ccc(CCNC(=O)c2ccc(O)c3nc(-c4ccc(F)cc4F)[nH]c23)cc1 | – | – | EC50 [3]: 13 nM
9 | 4800 | – | 140 | CS(=O)(=O)Nc1ccc(CCNC(=O)c2ccc(O)c3nc(C4CC4)[nH]c23)cc1 | – | – | –
10 | – | -0.58 | – | CS(=O)(=O)Nc1ccc(CCNC(=O)c2ccc(O)c3[nH]c(-c4ccc(F)cc4F)nc23)cc1 | – | – | Activity [6]: 73.4%; Activity [9]: 93.1%; Activity [10]: 91.4%; Activity [12]: 49.2%; Activity [13]: 114%
11 | 21000 | – | – | Cc1nc2c(O)ccc(C(=O)NCCc3ccc(NS(C)(=O)=O)cc3)c2[nH]1 | – | – | –
12 | 120 | – | 7 | CS(=O)(=O)Nc1ccc(CCNC(=O)c2ccc(O)c3[nH]c(-c4ccc(Cl)cc4)nc23)cc1 | 28000 | 233 | –

Further lines, the compound ahead of its results:

Row | SMILES | EC50 [1] [nM] | Activity [2] [%] | IC50 [5] [nM] | CC50 [4] [nM] | Ratio [8] | other results
13 | CCCCNC(=O)c1ccc(O)c2[nH]c(Cc3ccccc3)nc12 | – | 63 | – | – | – | –
14 | O=C(O)COc1cccc(CCCNC(=O)c2ccc(O)c3nc(-c4ccc(Cl)cc4)[nH]c23)c1 | 250 | – | 31 | 17000 | – | EC50 [3]: 80 nM
15 | O=C(NCCCn1cnc(Cl)c1Cl)c1ccc(O)c2[nH]c(-c3ccco3)nc12 | – | -1.7 | – | – | 1400 | Activity [6]: 53.9%; Activity [7]: 65.2%; Activity [9]: 74.7%; Activity [10]: 70.6%; Activity [11]: 92.3%; Activity [12]: 38.6%; Activity [13]: 83.6%
16 | O=C(NCCCn1cnc(Cl)c1Cl)c1ccc(O)c2[nH]c(-c3cccs3)nc12 | 34 | – | 8 | > 100000 | >2941 | –
17 | O=C(NCCCn1ccnc1)c1ccc(O)c2[nH]c(-c3ccc(Cl)cc3Cl)nc12 | 240 | – | 15 | 45000 | 187 | –
18 | CCN1CCN(C(=O)c2ccc(CCNC(=O)c3ccc(O)c4nc(-c5cccs5)[nH]c34)cc2)CC1 | 400 | – | 46 | 51000 | – | –
19 | O=C(NCCc1ccc([N+](=O)[O-])cc1)c1ccc(O)c2[nH]c(Cc3ccccc3)nc12 | – | 32 | – | – | – | –
20 | O=C(NCCCn1cnc(Cl)c1Cl)c1ccc(O)c2nc(-c3ccc(Cl)cc3Cl)[nH]c12 | 110 | – | 6 | 60000 | – | EC50 [3]: 170 nM
21 | O=C(NCCCn1ccnc1)c1ccc(O)c2nc(-c3ccc(F)c(Cl)c3)[nH]c12 | 490 | – | – | > 100000 | – | EC50 [3]: 100 nM
22 | O=C(NCCCn1cnc(Cl)c1Cl)c1ccc(O)c2nc(-c3ccco3)[nH]c12 | 50 | – | 10 | 70000 | – | EC50 [3]: 40 nM
23 | Cc1cn(CCCNC(=O)c2ccc(O)c3[nH]c(-c4cccs4)nc23)cn1 | 310 | – | 50 | > 100000 | >322 | –
24 | O=C(O)COc1cccc(CCCNC(=O)c2ccc(O)c3[nH]c(-c4ccc(Cl)cc4)nc23)c1 | – | 0.3 | – | – | 68 | Activity [6]: 80%; Activity [7]: 90.9%; Activity [9]: 87.3%; Activity [10]: 104%; Activity [11]: 100%; Activity [12]: 58.6%; Activity [13]: 54.5%
25 | CCN1CCN(C(=O)c2ccc(CCNC(=O)c3ccc(O)c4[nH]c(-c5cccs5)nc34)cc2)CC1 | – | 0.9 | – | – | 127 | Activity [6]: 80.9%; Activity [7]: 70.4%; Activity [9]: 72.7%; Activity [10]: 80.7%; Activity [11]: 96%; Activity [12]: 68.2%; Activity [13]: 60.8%
26 | O=C(NCc1cccc(O)c1)c1ccc(O)c2[nH]c(Cc3ccccc3)nc12 | – | 53 | – | – | – | –
27 | NC(=O)c1ccc(O)c2[nH]c(Cc3ccccc3)nc12 | – | 75 | – | – | – | –
28 | O=C(NCCc1ccc([N+](=O)[O-])cc1)c1ccc(O)c2nc(Cc3ccccc3)[nH]c12 | – | – | 2000 | – | – | –
29 | O=C(NCCCn1cnc(Cl)c1Cl)c1ccc(O)c2[nH]c(-c3ccc(Cl)cc3Cl)nc12 | – | 0 | – | – | 545 | Activity [6]: 97.9%; Activity [9]: 80.7%; Activity [10]: 102%; Activity [12]: 74.9%; Activity [13]: 109%
30 | O=C(NCCCn1ccnc1)c1ccc(O)c2[nH]c(-c3ccc(F)c(Cl)c3)nc12 | – | 1 | – | – | >204 | Activity [6]: 66.5%; Activity [7]: 71.3%; Activity [9]: 80%; Activity [10]: 76%; Activity [11]: 83.9%; Activity [12]: 52.4%; Activity [13]: 85.3%
